We go through 1 molecule from patent publication US10647690B2, “2,3-epoxy succinyl derivative, preparation method and use thereof” (Institute of Pharmacology and Toxicology Academy of …, priority 2016, dated 2020).

Common to all, as to type: biochemical
Assay [1] deals with T1, Cathepsin K (Homo sapiens, UniProt P43235).
T1 construct: purchased Biovision K150-100
T1 sequence (P43235 115-329): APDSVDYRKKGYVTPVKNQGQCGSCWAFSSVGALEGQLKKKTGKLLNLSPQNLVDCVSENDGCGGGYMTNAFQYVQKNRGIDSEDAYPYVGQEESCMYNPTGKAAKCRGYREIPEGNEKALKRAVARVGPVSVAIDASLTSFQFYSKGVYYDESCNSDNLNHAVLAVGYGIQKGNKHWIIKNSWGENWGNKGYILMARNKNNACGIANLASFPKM
The assay can be described thus: IC50 determination against Cathepsin K (Biovision kit K150-100). Particulars: CTSK. The protocol:
(§1) 2. Method for determining IC50 of compounds against cathepsin:
IC50 of compounds against Cathepsin K was determined by using Cathepsin K Inhibitor Screening Kit (Product No. K150-100) from Biovision Company;
2.1.1.1 Preparation of Cathepsin K solution: Cathepsin K enzyme (23 μl) and Cathepsin K reagent (46 μl) were added to Cathepsin K buffer (2231 μl), and mixed well, to prepare Cathepsin K enzyme solution with a volume of 2.3 ml, which was placed on ice for further use.
(§2) 2.1.2 Preparation of compound solutions: 30 mM and 10 mM compound stock solutions, and control compounds were gradiently diluted in DMSO at a ratio of 1:3, wherein the maximum dilution fold was 19683; the gradiently diluted compound solution (3 μl) was added to Cathepsin K, B, L, and S buffer (27 μl), respectively, and mixed well, wherein the control compounds (FF-FMK, F-F-FMK, FF-FMK and Z-FF-FMK) were at the concentrations of 66.67, 22.22, 7.41, 2.47, 0.82, 0.27, 0.091, 0.03, 0.01, 0.0034 and 0 μM, respectively, the test compounds were at the concentrations of 1000, 333.3, 111.1, 37, 12.3, 4.1, 1.4, 0.46, 0.15, 0.05 and 0 μM, respectively, and the final concentration of DMSO was 10%.
2.1.3.1 Cathepsin K: Cathepsin K substrate (90 μl) was added to Cathepsin K buffer (1710 μl), and mixed well, to prepare Cathepsin K substrate solution with a volume of 1.8 ml, which was placed on ice for further use.
(§3) Method for screening cathepsin inhibitors: the cathepsin solution (prepared in Item 2.1.1) was added to a 384-well plate (ProxiPlate-384 Plus, Perkinelmer) at 10 μl/well, and centrifuged at 1000 rpm for Imin; the compound solution (prepared in Item 2.1.2) was then added at 2 μl/well, and every concentration was repeated in two wells; the final concentrations of the test compounds were 100, 33.3, 11.1, 3.7, 1.23, 0.41, 0.14, 0.046, 0.015, 0.005 and 0 μM, respectively, wherein the final concentration of DMSO was 1%; after centrifugation at 1000 rpm for 1 min, the plate was put in a 25° C. incubator for 15 min; the cathepsin substrate solution was then added at 8 µl/well, and centrifuged at 1000 rpm for 1 min; and finally, the fluorescence signal was read in Enspire, wherein the exciting light was at a wavelength of 400 nm, the emitting light was at a wavelength of 505 nm, and continuous reading was performed at 37° C. for 120 min.
(§4) Data analysis: the slope (S) for all the samples was calculated by ΔRFU(RFU2−RFU1) and time ΔT(T2−T1), including negative control (Enzyme Control, EC) and positive control (Inhibitor Control, IC: 10 μM (FF-FMK, F-F-FMK, FF-FMK and Z-FF-FMK), and the calculation formula was as followed: Relative inhibition rate %=(SEC−SS)/(SEC−SIC)*100. The IC50 for each compound was obtained by means of fitting by software GraphPad Prism 5.0.

For assay [2], the target named is T1, Cathepsin K. Description: Preliminary screening of Cathepsin K (Cathepsin K Inhibitor Screening Kit K150-100, Biovision). Particulars: relative inhibition rate vs 10 μM FF-FMK control. As for the experimental part: 1. Method for preliminary screening of Cathepsin K:
Preliminary screening of Cathepsin K was performed by using Cathepsin K Inhibitor Screening Kit (Product No. K150-100) from Biovision Company.
1.1.1 Preparation of Cathepsin K enzyme solution: Cathepsin K enzyme (40 μl) and Cathepsin K reagent (80 μl) were added to Cathepsin K buffer (3.88 ml), and were mixed well, to prepare Cathepsin K enzyme solution with a volume of 4 ml, which was placed on ice for further use.
1.1.2 Preparation of a compound solution: different compounds were separately weighed and dissolved in DMSO (methyl sulfoxide), to prepare solutions at a concentration of 30 mM as stock solutions, and for some insoluble compounds, they were prepared into solutions at a concentration of 10 mM as stock solutions; the 30 mM and 10 mM compound stock solutions were diluted to 1 mM and 100 μM DMSO solutions, respectively; 1 mM and 100 μM compound DMSO solutions (2 μl) were separately added to CTSK buffer (18 μl), to prepare compound solutions at a final concentration of 100 μM and 10 μM, respectively, wherein the concentration of DMSO was 10%.
1.1.3 Preparation of Cathepsin K substrate solution: Cathepsin K substrate (160 μl) was added to Cathepsin K buffer (3.44 ml), and mixed homogeneously, to prepare Cathepsin K substrate solution with a volume of 3.6 ml, which was placed on ice for further use.
1.2 Method for screening Cathepsin K inhibitor: Cathepsin K enzyme solution (prepared in Item 1.1.1) was added to a 384-well plate (ProxiPlate-384 Plus, Perkinelmer) at 10 μl/well, and centrifuged at 1000 rpm for 1 min; the compound solution (prepared in Item 1.1.2) was then added at 2 µl/well, and centrifuged at 1000 rpm for 1 min, and every concentration was repeated in two wells; the plate was placed in a 25° C. incubator for 15 min; Cathepsin K substrate solution was then added at 8 μl/well, and centrifuged at 1000 rpm for 1 min; and finally, the fluorescence signal was read in Enspire, wherein the exciting light was at a wavelength of 400 nm, the emitting light was at a wavelength of 505 nm, and continuous reading was performed at 37° C. for 120 min.
1.3 Data analysis: the slope (S) for all the samples was calculated by ΔRFU (RFU2−RFU1) and time ΔT (T2−T1), including negative control (Enzyme Control, EC) and positive control (Inhibitor Control, IC: 10 μM FF-FMK), and the calculation formula was as followed: Relative inhibition rate %=(SEC−SS)/(SEC−SIC)*100.

Another assay has as its target T2, Cathepsin S (Homo sapiens, UniProt P25774).
T2 construct: purchased Biovision K149-100
The assay can be described thus: IC50 determination against Cathepsin S (Biovision kit K149-100). The following applies: CTSS. The protocol:
as §1
IC50 of compounds against Cathepsin S was determined by using Cathepsin S Inhibitor Screening Kit (Product No. K149-100) from Biovision Company.
2.1.1.4 Preparation of Cathepsin S solution: Cathepsin S enzyme (46 μl) was added to Cathepsin S buffer (2254 μl), and mixed well, to prepare Cathepsin S enzyme solution with a volume of 2.3 ml, which was placed on ice for further use.
as §2
2.1.3.4 Cathepsin S: Cathepsin S substrate (90 μl) was added to Cathepsin S buffer (1710 μl), and mixed well, to prepare Cathepsin S substrate solution with a volume of 1.8 ml, which was placed on ice for further use.
as §3, §4

The mark [3] stands for this setting: Exp-1, read-out: IC50 (nM) Exp-1.
The mark [4] stands for this setting: Exp-2, read-out: IC50 (nM) Exp-2.
Where [5] appears, read: average of Exp-1 and Exp-2, read-out: Ave of IC50.

Read-outs that look alike come from different tables or passages of the source.

T2 sequence (P25774 115-331): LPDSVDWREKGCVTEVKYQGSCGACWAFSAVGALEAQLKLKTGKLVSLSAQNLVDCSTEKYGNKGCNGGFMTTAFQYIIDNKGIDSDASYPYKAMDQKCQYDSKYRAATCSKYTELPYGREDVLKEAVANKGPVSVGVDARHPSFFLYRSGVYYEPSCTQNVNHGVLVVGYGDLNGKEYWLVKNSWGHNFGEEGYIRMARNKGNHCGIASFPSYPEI

As a reminder, the IC50 is the concentration at which inhibition is half-maximal. Regarding `CCCNC(=O)[C@H]1O[C@@H]1C(=O)N[C@H](C(=O)N1CCC[C@H]1C(=O)O)[C@@H](C)CC` [zxy-60, CA-074, reference compound], the concentration for half-maximal inhibition (IC50) was determined as 252 nM on Cathepsin K [1] (setting [3]); 245 nM at Cathepsin K [1] (setting [4]); 248 nM on Cathepsin K [1] (setting [5]); 3510 nM on Cathepsin S (setting [3]); 3230 nM on Cathepsin S (setting [4]); 3370 nM at Cathepsin S (setting [5]). Also, the “Inhibition % (1 μM) replicate 1” value at Cathepsin K [2] (1 μM compound, replicate 1) is 88.44%. Besides, at Cathepsin K [2] (1 μM compound, replicate 2), the “Inhibition % (1 μM) replicate 2” value turned out to be 92.44%. Besides, the “Inhibition % (10 μM) replicate 1” value at Cathepsin K [2] (10 μM compound, replicate 1) turned out to be 94.49%. In addition, at Cathepsin K [2] (10 μM compound, replicate 2), the “Inhibition % (10 μM) replicate 2” value stood at 91.36%.
